According to patent US20240109881A1, “Heteroaryl Compounds as Ligand Directed Degraders of IRAK4” (Bristol-Myers Squibb Company, priority 2022, published 2024):

Target: T1, IRAK4 (Homo sapiens, UniProt Q9NWZ3)
T1 construct: endogenous in cells; host or cells: THP-1 cells
T1 sequence (Q9NWZ3 1-460): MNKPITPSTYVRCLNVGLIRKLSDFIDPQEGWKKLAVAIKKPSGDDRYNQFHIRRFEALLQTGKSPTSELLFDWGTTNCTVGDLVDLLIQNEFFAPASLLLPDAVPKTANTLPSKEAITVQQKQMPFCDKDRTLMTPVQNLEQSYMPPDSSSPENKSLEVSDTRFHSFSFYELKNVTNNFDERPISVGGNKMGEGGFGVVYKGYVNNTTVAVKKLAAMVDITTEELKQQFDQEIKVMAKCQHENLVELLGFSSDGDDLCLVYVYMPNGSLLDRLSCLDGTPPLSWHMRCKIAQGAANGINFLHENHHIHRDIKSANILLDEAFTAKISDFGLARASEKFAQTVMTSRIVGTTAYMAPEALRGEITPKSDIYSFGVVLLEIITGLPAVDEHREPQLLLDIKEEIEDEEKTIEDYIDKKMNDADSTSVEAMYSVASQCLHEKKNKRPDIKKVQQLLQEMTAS
Test: ALE THP1 HTRF (Advanced Lipoxidation End Product THP1 Homogeneous Time Resolved Fluorescence)
Type: cell-based
Settings: THP1 cells
Summary of the method: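 HTRF read-out of IRAK4 protein: anti-IRAK4 d2 and cryptate antibody pair added to BCA-normalized lysates, overnight dark room-temperature incubation. Lysis ran 45 min with shaking at room temperature; buffer, cryptate-only and negative controls included.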

| Compound | ALE THP1 HTRF YMIN | EC50 |
| --- | --- | --- |
| N#Cc1cnn2c(-c3cc(NC4CC4)c(C(=O)N[C@H]4CC[C@H](CCN5CCN(c6ccc(C7CCC(=O)NC7=O)cc6)CC5)CC4)cn3)cnc2c1 (some centres unmarked) [P-123] | 24.4% | 0.062 µM |
| N#Cc1cnc2c(cnn2-c2cc(NC3CC3)c(C(=O)N[C@H]3CC[C@H](CCN4CC5(C4)CN(c4ccc(C6CCC(=O)NC6=O)cc4)C5)CC3)cn2)c1 (some centres unmarked) [P-124] | 19.2% | 0.046 µM |
| CN(C[C@H]1CC[C@H](NC(=O)c2cnc(-n3ncc4cc(C#N)cnc43)cc2NC2CC2)CC1)C1CCN(c2ccc3c(c2)CN(C2CCC(=O)NC2=O)C3=O)CC1 (some centres unmarked) [P-127] | 24.5% | 0.008 µM |
| N#Cc1cnc2c(cnn2-c2cc(NC3CC3)c(C(=O)N[C@H]3CC[C@H](C(=O)NC4CCN(c5ccc6c(c5)CN(C5CCC(=O)NC5=O)C6=O)CC4)CC3)cn2)c1 (some centres unmarked) [P-129] | 24.2% | 0.047 µM |
| N#Cc1cnc2c(cnn2-c2cc(NC3CC3)c(C(=O)N[C@H]3CC[C@H](CN4CCC5(CCN(c6ccc7c(c6)CN(C6CCC(=O)NC6=O)C7=O)CC5)C4)CC3)cn2)c1 (some centres unmarked) [P-130] | 20.0% | 0.015 µM |
| N#Cc1cc2cnn(-c3cc(NC4CC4)c(C(=O)N[C@H]4CC[C@H](CCN5CCN(c6ccc(C7CCC(=O)NC7=O)cc6)CC5)CC4)cn3)c2nc1N (some centres unmarked) [P-131] | 5.3% | 0.003 µM |
| CS(=O)(=O)N1CCC(Nc2cc(-n3ncc4cc(C#N)cnc43)ncc2C(=O)N[C@H]2CC[C@H](CCN3CCN(c4ccc(C5CCC(=O)NC5=O)cc4)CC3)CC2)CC1 (some centres unmarked) [P-132] | 7.9% | 0.013 µM |
| CS(=O)(=O)N1CCC(Nc2cc(-n3ncc4cc(C#N)c(N)nc43)ncc2C(=O)N[C@H]2CC[C@H](CCN3CCN(c4ccc(C5CCC(=O)NC5=O)cc4)CC3)CC2)CC1 (some centres unmarked) [P-133] | 6.9% | 0.01 µM |
| CC(C)Nc1cc(Nc2ccc(C#N)cc2Cl)ncc1C(=O)N[C@H]1CC[C@H](CCN2CCN(c3ccc(C4CCC(=O)NC4=O)cc3)CC2)CC1 (some centres unmarked) [P-134] | 20.9% | 0.094 µM |
| C[C@H](C#N)Nc1cc(-n2ncc3cc(C#N)c(N)nc32)ncc1C(=O)N[C@H]1CC[C@H](CCN2CCN(c3ccc(C4CCC(=O)NC4=O)cc3)CC2)CC1 (some centres unmarked) [P-135] | 7.3% | 0.001 µM |
| C[C@H](C#N)Nc1cc(-n2ncc3cc(C#N)cnc32)ncc1C(=O)N[C@H]1CC[C@H](CCN2CCN(c3ccc(C4(C)CCC(=O)NC4=O)cc3)CC2)CC1 (some centres unmarked) [P-136] | 7.4% | 0.006 µM |
| N#Cc1cnc2c(cnn2-c2cc(NC3CCC(C(N)=O)CC3)c(C(=O)N[C@H]3CC[C@H](CCN4CCN(c5ccc(C6CCC(=O)NC6=O)cc5)CC4)CC3)cn2)c1 (some centres unmarked) [P-137] | 7.7% | 0.018 µM |
| CCNc1cc(Nc2ccc3ncc(F)cc3n2)ncc1C(=O)N[C@H]1CC[C@H](CCN2CCN(c3ccc(C4CCC(=O)NC4=O)cc3)CC2)CC1 (some centres unmarked) [P-138] | 42.1% | 1.28 µM |
| CC1(Nc2cc(-n3ncc4cc(C#N)cnc43)ncc2-n2cc([C@H]3CC[C@H](CCN4CCN(c5ccc(C6CCC(=O)NC6=O)cc5)CC4)CC3)nn2)CC1 (some centres unmarked) [P-140] | 6.4% | 0.03 µM |

Results, then the compound that gave them:

| ALE THP1 HTRF YMIN | EC50 | Compound |
| --- | --- | --- |
| 10.1% | 0.001 µM | C[C@H](C#N)Nc1cc(-n2ncc3cc(C#N)cnc32)ncc1-n1cc(C2CCC(CCN3CCN(c4ccc(C5CCC(=O)NC5=O)cc4)[C@@H](C)C3)CC2)nn1 (stereo in doubt) [P-156] |
| 6.1% | < 0.001 µM | O=C1CCC(c2ccc(N3CCN(CC[C@H]4CC[C@H](NC(=O)c5cnc(Nc6ccc7[nH]c(=O)sc7c6)cc5NC5CC5)CC4)CC3)cc2)C(=O)N1 (some centres unmarked) [P-141] |
| 9.7% | 0.046 µM | C[C@H](C#N)Nc1cc(-n2ncc3cc(C#N)c(N)nc32)ncc1C(=O)N[C@H]1CC[C@H](CCN2CCN(c3ccc(C4CCC(=O)NC4=O)cc3)[C@H](C)C2)CC1 (some centres unmarked) [P-142] |
| 6.5% | 0.004 µM | C[C@H](C#N)Nc1cc(-n2ncc3cc(C#N)cnc32)ncc1C(=O)N[C@H]1CC[C@H](CCN2CCC(c3ccc(C4CCC(=O)NC4=O)cc3)CC2)CC1 (some centres unmarked) [P-143] |
| 5.9% | 0.004 µM | C[C@H](C#N)Nc1cc(-c2ccc3cc(C#N)cnn23)ncc1C(=O)N[C@H]1CC[C@H](CCN2CCN(c3ccc(C4CCC(=O)NC4=O)cc3)CC2)CC1 (some centres unmarked) [P-144] |
| 11.0% | 0.035 µM | C[C@H](C#N)Nc1cc(-n2cc(F)c3cc(C#N)cnc32)ncc1C(=O)N[C@H]1CC[C@H](CCN2CCN(c3ccc(C4CCC(=O)NC4=O)cc3)CC2)CC1 (some centres unmarked) [P-145] |
| 8.0% | 0.001 µM | C[C@H](C#N)Nc1cc(-n2ncc3cc(C#N)c(N)nc32)ncc1C(=O)N[C@H]1CC[C@H](CCN2CCC(c3ccc(C4CCC(=O)NC4=O)cc3)CC2)CC1 (some centres unmarked) [P-146] |
| 9.0% | 0.019 µM | C[C@H](C#N)Nc1cc(-c2cnc3cc(C#N)cnn23)ncc1C(=O)N[C@H]1CC[C@H](CCN2CCN(c3ccc(C4CCC(=O)NC4=O)cc3)CC2)CC1 (some centres unmarked) [P-147] |
| 11.0% | 0.016 µM | C[C@H](C#N)Nc1cc(-c2cnc3cc(C#N)cnn23)ncc1C(=O)N[C@H]1CC[C@H](CCN2CCC(c3ccc(C4CCC(=O)NC4=O)cc3)CC2)CC1 (some centres unmarked) [P-148] |
| 7.1% | 0.004 µM | C[C@H](C#N)Nc1cc(-n2ncc3cc(C#N)cnc32)ncc1C(=O)N[C@H]1CC[C@H](CCN2[C@@H](C)CN(c3ccc(C4CCC(=O)NC4=O)cc3)C[C@@H]2C)CC1 (some centres unmarked) [P-149] |
| 6.2% | 0.007 µM | C[C@H](C#N)Nc1cc(-n2ncc3cc(C#N)cnc32)ncc1C(=O)N[C@H]1CC[C@H](CCN2CCN(c3ccc(C4CCC(=O)NC4=O)cc3)[C@H](C)C2)CC1 (some centres unmarked) [P-150] |
| 6.0% | 0.008 µM | C[C@H](C#N)Nc1cc(-n2ncc3cc(C#N)cnc32)ncc1C(=O)N[C@H]1CC[C@H](CCN2C[C@@H](C)N(c3ccc(C4CCC(=O)NC4=O)cc3)C[C@@H]2C)CC1 (some centres unmarked) [P-151] |
| 15.8% | 0.02 µM | C[C@H](C#N)Nc1cc(-n2ncc3cc(C#N)cnc32)ncc1C(=O)N[C@H]1CC[C@H](CCN2CCN(c3ccc(C4CCC(=O)NC4=O)cn3)[C@H](C)C2)CC1 (some centres unmarked) [P-152] |
| 4.5% | 0.017 µM | COc1cc(N2C[C@H](C)N(CC[C@H]3CC[C@H](NC(=O)c4cnc(-n5ncc6cc(C#N)cnc65)cc4N[C@H](C)C#N)CC3)[C@@H](C)C2)ccc1C1CCC(=O)NC1=O (some centres unmarked) [P-153] |
| 10.0% | 0.022 µM | N#Cc1cnc2c(cnn2-c2cc(NC3CC3)c(-n3cc([C@H]4CC[C@H](CCN5CCN(c6ccc(C7CCC(=O)NC7=O)cc6)CC5)CC4)nn3)cn2)c1 (some centres unmarked) [P-154] |
| 10.0% | 0.002 µM | CC1(Nc2cc(-n3ncc4cc(C#N)c(N)nc43)ncc2-n2cc([C@H]3CC[C@H](CCN4CCN(c5ccc(C6CCC(=O)NC6=O)cc5)CC4)CC3)nn2)CC1 (some centres unmarked) [P-157] |
| 16.0% | 0.065 µM | C[C@H](C#N)Nc1cc(-n2ncc3cc(C#N)cnc32)ncc1C(=O)N[C@H]1CC[C@H](CCN2C[C@H](C)N(c3ccc(C4CCC(=O)NC4=O)cc3)C[C@@H]2C)CC1 (some centres unmarked) [P-158] |

Target: T1, IRAK4
Test: LVL THP1 HTRF (THP1 Homogeneous Time Resolved Fluorescence)
Type: cell-based
Settings: THP1 cells, 18 h incubation with compound
Summary of the method: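 IRAK4 HTRF read-out (665/615 nm ratio, anti-IRAK4 d2 acceptor and K donor, 18 h dark incubation at room temperature) on lysates of THP-1 cells. Cells were treated 18 h at 37° C. with 20 nL compound in DMSO, in colorless RPMI with 10% FBS, with a duplicate CTG plate.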

| Compound | LVL THP1 HTRF YMIN |
| --- | --- |
| C[C@H](C#N)Nc1cc(-n2ncc3cc(C#N)cnc32)ncc1-n1cc(C2CCC(CCN3CCN(c4ccc(C5CCC(=O)NC5=O)cc4)[C@@H](C)C3)CC2)nn1 (stereo in doubt) [P-156] | 2.0% |
| C[C@H](C#N)Nc1cc(-c2ccc3cc(C#N)cnn23)ncc1C(=O)N[C@H]1CC[C@H](CCN2CCN(c3ccc(C4CCC(=O)NC4=O)cc3)CC2)CC1 (some centres unmarked) [P-144] | 0.8% |
| C[C@H](C#N)Nc1cc(-n2ncc3cc(C#N)cnc32)ncc1C(=O)N[C@H]1CC[C@H](CCN2CCN(c3ccc(C4CCC(=O)NC4=O)cc3)[C@H](C)C2)CC1 (some centres unmarked) [P-150] | <0.5% |

Same assay, conditions: THP1 cells, 18 h incubation with compound, read-out: LVL THP1 HTRF EC50

| Compound | DC50 |
| --- | --- |
| C[C@H](C#N)Nc1cc(-n2ncc3cc(C#N)cnc32)ncc1-n1cc(C2CCC(CCN3CCN(c4ccc(C5CCC(=O)NC5=O)cc4)[C@@H](C)C3)CC2)nn1 (stereo in doubt) [P-156] | 0.008 µM |
| C[C@H](C#N)Nc1cc(-c2ccc3cc(C#N)cnn23)ncc1C(=O)N[C@H]1CC[C@H](CCN2CCN(c3ccc(C4CCC(=O)NC4=O)cc3)CC2)CC1 (some centres unmarked) [P-144] | 0.013 µM |
| C[C@H](C#N)Nc1cc(-n2ncc3cc(C#N)cnc32)ncc1C(=O)N[C@H]1CC[C@H](CCN2CCN(c3ccc(C4CCC(=O)NC4=O)cc3)[C@H](C)C2)CC1 (some centres unmarked) [P-150] | 0.025 µM |
